# According to patent US9605064B2, “Methods and compositions for treatment of skin disorders” (AbbVie Biotechnology Ltd, priority 2006, dated 2017):
# Experiments:
# [1] = tested on: patients with moderate to severe chronic plaque psoriasis; experiment: PASI response, CHAMPION 16-week Phase III trial vs methotrexate and placebo; format: in vivo, human; conditions: ITT; for PASI 75 Response Rates, % Patients / PASI 90 Response Rates, % Patients: missing PASI = non-responder
# Method: (§1) Analytical methods included the following: • Intention-to-treat analyses were performed for all randomized patients • Missing data were analyzed using non-responder imputation (NRI) • PASI 75 at Week 16 (primary endpoint) was analyzed using adjusted Cochran-Mantel-Haenszel test.
# [2] = tested on: patients with moderate to severe chronic plaque psoriasis; conditions: human, in vivo, 16 weeks
# From the text: (§2) The study was a multi-center, 16-week, randomized controlled Phase III trial. The main inclusion criteria included: • Clinical diagnosis of psoriasis for ≧1 year • Affected body surface area (BSA)≧10% • Psoriasis Area and Severity Index (PASI)≧10 The main exclusion criteria was previous use of MTX or systemic anti-TNF therapy.
# [3] = tested on: patients with moderate to severe chronic plaque psoriasis; experiment: Adverse events, CHAMPION 16-week Phase III trial; conditions: 16-week study
# From the text: as §2
# [4] = tested on: patients with moderate to severe chronic plaque psoriasis; experiment: PGA, CHAMPION 16-week Phase III trial; format: in vivo, human; conditions: ITT, missing PGA = not achieving
# Method: as §1
# [5] = tested on: patients with moderate to severe chronic plaque psoriasis; experiment: PASI response, open-label extension of CHAMPION (methotrexate to adalimumab transition); format: in vivo, human; conditions: prior to starting adalimumab, after 16 weeks of methotrexate in CHAMPION; 95 patients
# [6] = MTX N = 110, Adalimumab N = 107
smiles,measurement,setting,value
"CN(Cc1cnc2nc(N)nc(N)c2n1)c1ccc(C(=O)N[C@@H](CCC(=O)O)C(=O)O)cc1 [methotrexate, reference compound]","PASI 75 Response Rates, % Patients",[1]; Week 4,3%
same,"PASI 90 Response Rates, % Patients",[1]; Week 4,1%
same,"PASI 75 Response Rates, % Patients",[1]; Week 8,9%
same,"PASI 90 Response Rates, % Patients",[1]; Week 8,3%
same,"PASI 75 Response Rates, % Patients",[1]; Week 12,25%
same,"PASI 90 Response Rates, % Patients",[1]; Week 12,9%
same,PASI 75,"[1]; Week 16, NRI",36%
same,"PASI 75 Response Rates, % Patients",[1]; Week 16,36%
same,"PASI 90 Response Rates, % Patients",[1]; Week 16,14%
same,"PASI 75 Response Rates, % Patients","[1]; Week 16, listed as MTX",35.5%
same,"PASI 90 Response Rates, % Patients","[1]; Week 16, listed as MTX",13.6%
same,PASI 50 response rate,"[1]; Week 16 of CHAMPION, NRI",61.8%
same,PASI 100 response rate,"[1]; Week 16 of CHAMPION, NRI",7.3%
same,Viral Infection,[2],6 (6) n (%)
same,Any AE,[3]; [6],89 (81) n (%)
same,Any AE leading to discontinuation,[3]; [6],6 (6) n (%)
same,Any SAE,[3]; [6],1 (1) n (%)
same,Any infectious AE,[3]; [6],46 (42) n (%)
same,Any infectious SAE,[3]; [6],0 (0) n (%)
same,Arthralgia,[3]; common AE in ≧5% of patients,5 (5) n (%)
same,Gamma-Glutamyltransferase Increased,[3]; common AE in ≧5% of patients,0 (0) n (%)
same,Headache,[3]; common AE in ≧5% of patients,12 (11) n (%)
same,Nasopharyngitis,[3]; common AE in ≧5% of patients,26 (24) n (%)
same,Nausea,[3]; common AE in ≧5% of patients,8 (7) n (%)
same,Pruritus,[3]; common AE in ≧5% of patients,2 (2) n (%)
same,Rhinitis,[3]; common AE in ≧5% of patients,4 (4) n (%)
same,Rhinorrhea,[3]; common AE in ≧5% of patients,0 (0) n (%)
same,"PGA “Clear” or “Minimal” Responses, % Patients",[4]; Week 4,1%
same,"PGA “Clear” or “Minimal” Responses, % Patients",[4]; Week 8,3%
same,"PGA “Clear” or “Minimal” Responses, % Patients",[4]; Week 12,9%
same,"PGA “Clear” or “Minimal” Responses, % Patients",[4]; Week 16,14%
same,PASI 75 response rate,[5],28%
same,PASI 90 response rate,[5],14%
same,PASI 100 response rate,[5],5%
